Where two headings read alike, the source gives them in different places.
Experiments:
[1] = tested on: HIV-1 (RF) in MT-2 cells; test: microbe, parasite or virus in culture; assay type: cell-based
Procedure, shortened: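 HIV-1 laboratory strains (RF, MN, IIIB) grown in H9 cells in RPMI 1640 with 5% FCS; infections in MT-2 cells. Viral RNA quantified by hybridization with biotinylated gag/pol capture probes on streptavidin plates and alkaline phosphatase-conjugated reporter probes; BH10 gag-pol in vitro transcripts serve as RNA standards.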

[2] = target: single-chain tethered dimer of HIV protease (Human immunodeficiency virus 1, UniProt P04585); test: biochemical; assay type: biochemical; set-up: fused on or other part: A second copy of the same protease unit is joined to the first by a short peptide tether, giving one polypeptide
[3] = Human immunodeficiency virus 1, MT2, 48 h, Table 2d, class symbols, read-out: IC90
[4] = read-out: HPLC K1, Table 2d, class symbols
[5] = Table 2d, HIV protease inhibition, HPLC method, read-out: HPLC K1
[6] = HIV RNA assay, HIV-1 infected MT-2 cells, Table 2d
[7] = HIV protease inhibition, HPLC method, Table 2d, read-out: HPLC K1
[8] = Human immunodeficiency virus 1, MT2, 48 h, Table 2d, HIV RNA assay, read-out: IC90
[9] = read-out: HPLC K1, Table 2d, HIV protease inhibition, HPLC method
[10] = Table 2d, class symbols, read-out: HPLC K1

O=C1N(Cc2ccccc2)[C@H](Cc2ccccc2)C[C@@H](O)[C@@H](Cc2ccccc2)N1Cc1ccccc1 [Example 7AN]
Mass Spec M + H (class symbols printed in this column) ([1]; Table 1d, lower part): +++ (+++=<10 μg/mL)
Ki ([2]; read-out: HPLC Ki, Table 1d, lower part): < 10 nM

O=C1N(Cc2ccc(CO)cc2)C(Cc2ccc(F)c(F)c2)C(O)C(O)C(Cc2ccc(F)c(F)c2)N1Cc1ccc(CO)cc1 (stereo not shown) [20AB]
IC90 ([1]; Table 2i): +++ (+++=<10 μg/mL)
Ki ([2]; Table 2i, read-out: HPLC Ki): < 10 nM

O=S1(=O)N(CC2CCOC2)C(Cc2ccccc2)C(O)C(O)C(Cc2ccccc2)N1CC1CCOC1 (stereo not shown) [23R]
IC90 ([1]; Table 2m): +++ (+++=<10 μg/mL)
Ki ([2]; Table 2m, read-out: HPLC Ki): 10 to 1000 nM

CC(=O)Oc1cccc(CN2C(=O)N(Cc3cccc(OC(C)=O)c3)C(Cc3ccccc3)C(O)C(O)C2Cc2ccccc2)c1 (stereo not shown) [10F]
IC90 [1, 3]: < 10 µg/mL
Ki [2, 4]: 10 to 1000 nM

Nc1cccc(CN2C(Cc3ccccc3)C(O)C(O)C(Cc3ccccc3)N(Cc3cccc(N)c3)S2(=O)=O)c1 (stereo not shown) [23M]
IC90 ([1]; Table 2m): +++ (+++=<10 μg/mL)
Ki ([2]; Table 2m, read-out: HPLC Ki): < 10 nM

O=C1N(Cc2cccc(C=NCCO)c2)C(Cc2ccccc2)C(O)C(O)C(Cc2ccccc2)N1Cc1cccc(C=NCCO)c1 (stereo not shown) [Example 9J]
IC90 [1, 3]: < 10 µg/mL
Ki [2, 4]: 10 to 1000 nM

Nc1ccc(CC2C(O)C(O)C(Cc3ccccc3N)N(CC3CC3)C(=O)N2CC2CC2)cc1 (stereo not shown) [Example 20E]
IC90 ([1]; Human immunodeficiency virus 1, MT2, Table 2i, read-out: IC90): < 10 µg/mL
Ki ([2]; read-out: HPLC Ki, Table 2i): < 10 nM

COC(=O)c1cccc(CN2C(Cc3ccc(F)cc3)C(O)C(O)C(Cc3ccc(F)cc3)N(Cc3cccc(C(=O)OC)c3)S2(=O)=O)c1 (stereo not shown) [31A]
IC90 ([1]; Table 2u): +++ (+++=<10 μg/mL)
IC90 ([1]; Table 2u (second printing)): +++ (+++=<10 μg/mL)
Ki ([2]; Table 2u (second printing), HPLC method, read-out: K1 (HPLC)): 10 to 1000 nM
Ki ([2]; Table 2u, HPLC method, read-out: K1 (HPLC)): 10 to 1000 nM

N#Cc1cccc(CN2C(=S)N(Cc3ccc(CO)cc3)C(Cc3ccccc3)C(O)C(O)C2Cc2ccccc2)c1 (stereo not shown) [Example 27H]
IC90 ([1]; Table 2q): +++ (+++=<10 μg/mL)
Ki ([2]; Table 2q, read-out: HPLC Ki): < 10 nM

O=C1N(Cc2ccc(CO)cc2)C(Cc2ccccc2)C(O)C(O)C(Cc2ccccc2)N1Cc1ccc(CO)cc1 (stereo not shown) [Example 13S]
IC90 ([1]; Table 2d, class symbols): ++ (++=10 to 100 μg/mL)
Ki [2, 4]: 10 to 1000 nM

O=C1CCC(CN2C(=O)NC(Cc3ccccc3)C(O)C(O)C2Cc2ccccc2)CC1 (stereo not shown) [Example 15VA]
IC90 [1, 3]: > 50 µg/mL
Ki [2, 4]: 10 to 1000 nM

O=C1Cc2cc(CN3C(=O)N(Cc4ccc5c(c4)CC(=O)N5)C(Cc4ccccc4)C(O)C(O)C3Cc3ccccc3)ccc2N1 (stereo not shown) [15DD]
IC90 ([1]; Table 2d, HIV RNA assay): +++ (+++=<10 μg/mL)
Ki [2, 5]: < 10 nM

O=C(NCCCCCN1C(=O)N(CCCCCNC(=O)c2cc(F)cc(F)c2)C(Cc2ccccc2)C(O)C(O)C1Cc1ccccc1)c1cc(F)cc(F)c1 (stereo not shown) [15FG]
IC90 [1, 6]: ++/+ (The ++/+ is used in the cases where an IC90 was determined to be >50 μg/mL)
Ki [2, 7]: 10 to 1000 nM

O=C1N(Cc2cccc(O)c2)C(CCc2ccccc2)[C@@H](O)[C@@H](Cc2ccccc2)N1Cc1cccc(O)c1 (stereo partly shown) [Example 8I]
IC90 ([1]; Human immunodeficiency virus 1, MT2, Table 1e, read-out: IC90): < 10 µg/mL
Ki ([2]; read-out: Ki (HPLC), Table 1e, cells marked (HPLC)): < 10 nM

NCCCCN1C(=O)N(CCCCN)C(Cc2ccccc2)C(O)C(O)C1Cc1ccccc1 (stereo not shown) [15FI]
IC90 ([1]; Human immunodeficiency virus 1, MT2, 48 h, HIV RNA assay, HIV-1 infected MT-2 cells, Table 2d, read-out: IC90): > 50 µg/mL
Ki ([2]; read-out: HPLC K1, HIV protease inhibition, HPLC method, Table 2d): > 1000 nM

O=C(NCc1ccccn1)c1cccc(CN2C(=O)N(Cc3cccc(-c4cc[nH]n4)c3)C(Cc3ccccc3)C(O)C(O)C2Cc2ccccc2)c1 (stereo not shown) [15CB]
IC90 ([1]; Table 2d, HIV RNA assay): +++ (+++=<10 μg/mL)
Ki [2, 5]: < 10 nM

Nc1cccc(CN2C(=O)N(Cc3ccc(CO)cc3)C(Cc3ccccc3)C(O)C(O)C2Cc2ccccc2)c1 (stereo not shown) [15A]
IC90 [1, 3]: < 10 µg/mL
Ki [2, 4]: < 10 nM

O=C1N(Cc2ccc3[nH]nc(Cl)c3c2)C(Cc2ccccc2)C(O)C(O)C(Cc2ccccc2)N1Cc1ccc2[nH]nc(Cl)c2c1 (stereo not shown) [15DI]
IC90 ([1]; Table 2d, HIV RNA assay): +++ (+++=<10 μg/mL)
Ki [2, 5]: < 10 nM

O=C(c1cccc(CN2C(=O)N(Cc3cccc(C(=O)c4ncc[nH]4)c3)C(Cc3ccccc3)C(O)C(O)C2Cc2ccccc2)c1)c1ncc[nH]1 (stereo not shown) [Example 15XJ]
IC90 [1, 8]: < 10 µg/mL
Ki [2, 9]: < 10 nM

O=C1N(Cc2ccc3ccccc3c2)C(Cc2ccccc2)C(O)C(O)C(Cc2ccccc2)N1Cc1ccc2[nH]nnc2c1 (stereo not shown) [15DO]
IC90 ([1]; Table 2d, HIV RNA assay): +++ (+++=<10 μg/mL)
Ki [2, 5]: < 10 nM

O=C1N(Cc2cccc(-c3cn[nH]c3)c2)C(Cc2ccccc2)C(O)C(O)C(Cc2ccccc2)N1Cc1cccc(-c2cn[nH]c2)c1 (stereo not shown) [Example 15BN]
IC90 [1, 8]: < 10 µg/mL
Ki [2, 9]: < 10 nM

CN(C)C(=O)c1cccc(CN2C(=O)N(Cc3cccc(C(=O)N(C)C)c3)C(Cc3ccccc3)C(O)C(O)C2Cc2ccccc2)c1 (stereo not shown) [11S]
IC90 ([1]; Table 2d, class symbols): +++ (+++=<10 μg/mL)
Ki [2, 10]: 10 to 1000 nM

O=C(NCCCCCN1C(=O)N(CCCCCNC(=O)c2cccc(F)c2)C(Cc2ccccc2)C(O)C(O)C1Cc1ccccc1)c1cccc(F)c1 (stereo not shown) [15EY]
IC90 [1, 6]: +++ (+++=<10 μg/mL)
Ki [2, 7]: 10 to 1000 nM

O=C1N(CCCCCO)C(Cc2ccccc2)C(O)C(O)C(Cc2ccccc2)N1Cc1ccccc1 (stereo not shown) [Example 15VI]
IC90 [1, 3]: < 10 µg/mL
Ki [2, 4]: < 10 nM

O=C1N(Cc2ccc3c(c2)CCNC3)C(Cc2ccccc2)C(O)C(O)C(Cc2ccccc2)N1Cc1ccc2c(c1)CCNC2 (stereo not shown) [Example 13T]
IC90 ([1]; Table 2d, class symbols): + (+=>100 μg/mL)
Ki [2, 10]: 10 to 1000 nM

O=C1N(Cc2nccs2)C(Cc2ccccc2)C(O)C(O)C(Cc2ccccc2)N1Cc1nccs1 (stereo not shown) [Example 13V]
IC90 ([1]; Table 2d, class symbols): ++ (++=10 to 100 μg/mL)
Ki [2, 10]: 10 to 1000 nM

COC(=O)c1cc(CN2C(=O)N(Cc3ccc(F)c(C(=O)OC)c3)C(Cc3ccccc3)C(O)C(O)C2Cc2ccccc2)ccc1F (stereo not shown) [15EE]
IC90 ([1]; Table 2d, HIV RNA assay): + (+=>100 μg/mL)
Ki [2, 5]: < 10 nM

N#Cc1cccc(CN2C(=O)N(Cc3cccnc3)C(Cc3ccccc3)C(O)C(O)C2Cc2ccccc2)c1 (stereo not shown) [Example 15AR]
IC90 [1, 8]: < 10 µg/mL
Ki [2, 9]: < 10 nM

Cl.O=C(OCc1ccc(CN2C(=O)N(Cc3ccc(COC(=O)c4ccc(CNCCO)cc4)cc3)[C@H](Cc3ccccc3)[C@H](O)[C@@H](O)[C@H]2Cc2ccccc2)cc1)c1ccc(CNCCO)cc1 [29W]
IC90 ([1]; Table 2s): +++ (+++=<10 μg/mL)
Ki ([2]; Table 2s, read-out: Ki (HPLC)): 10 to 1000 nM

CS(=O)(=O)NCCCCCN1C(=O)N(CCCCCNS(C)(=O)=O)C(Cc2ccccc2)C(O)C(O)C1Cc1ccccc1 (stereo not shown) [15EN]
IC90 ([1]; Table 2d, HIV RNA assay): ++/+ (The ++/+ is used in the cases where an IC90 was determined to be >50 μg/mL)
Ki [2, 5]: 10 to 1000 nM

N#CCc1cccc(CN2C(=O)N(Cc3cccc(CC#N)c3)C(Cc3ccccc3)C(O)C(O)C2Cc2ccccc2)c1 (stereo not shown) [15DU]
IC90 [1, 8]: < 10 µg/mL
Ki [2, 9]: 10 to 1000 nM

CCCC(=O)c1cccc(CN2C(=O)N(Cc3cccc(C(=O)CCC)c3)C(Cc3ccc(F)cc3)C(O)C(O)C2Cc2ccc(F)cc2)c1 (stereo not shown) [20P]
IC90 ([1]; Table 2i): +++ (+++=<10 μg/mL)
Ki ([2]; Table 2i, read-out: HPLC Ki): < 10 nM

CCCCN1[C@H](Cc2ccccc2)[C@H](O)[C@@H](O)[C@@H](Cc2ccccc2)N(CCCC)P1(=O)Oc1ccccc1 (stereo partly shown) [Example 28D]
IC90 ([1]; Table 2r): +++ (+++=<10 μg/mL)
Ki ([2]; Table 2r, read-out: Ki HPLC): 10 to 1000 nM

CNC(=O)NCCCCCN1C(=O)N(CCCCCNC(=O)NC)C(Cc2ccccc2)C(O)C(O)C1Cc1ccccc1 (stereo not shown) [15ES]
IC90 ([1]; Table 2d, HIV RNA assay): ++/+ (The ++/+ is used in the cases where an IC90 was determined to be >50 μg/mL)
Ki [2, 5]: 10 to 1000 nM

O=C1N(Cc2ccc(CO)o2)C(Cc2ccccc2)C(O)C(O)C(Cc2ccccc2)N1Cc1ccc(CO)o1 (stereo not shown) [Example 13X]
IC90 [1, 3]: > 100 µg/mL
Ki [2, 4]: 10 to 1000 nM

NCCCCCN1C(=O)N(CCCCCN)C(Cc2ccccc2)C(O)C(O)C1Cc1ccccc1 (stereo not shown) [15EP]
IC90 [1, 8]: > 50 µg/mL
Ki [2, 9]: > 1000 nM

O=C1N(Cc2cccc(C(O)CO)c2)C(Cc2ccccc2)C(O)C(O)C(Cc2ccccc2)N1Cc1cccc(C(O)CO)c1 (stereo not shown) [11K]
IC90 [1, 3]: < 10 µg/mL
Ki [2, 4]: < 10 nM

CNCC(=O)NCCCCCN1C(=O)N(CCCCCNC(=O)CNC)C(Cc2ccccc2)C(O)C(O)C1Cc1ccccc1.Cl.Cl (stereo not shown) [15EZ]
IC90 [1, 6]: ++/+ (The ++/+ is used in the cases where an IC90 was determined to be >50 μg/mL)
Ki [2, 7]: 10 to 1000 nM

CC(C)(C)Sc1ncccc1CN1C(=O)N(Cc2cccnc2SC(C)(C)C)C(Cc2ccccc2)C(O)C(O)C1Cc1ccccc1 (stereo not shown) [Example 14B]
IC90 [1, 3]: < 10 µg/mL
Ki [2, 4]: 10 to 1000 nM

CNCc1cccc(CN2C(=O)N(Cc3cccc(CNC)c3)C(Cc3ccccc3)C(O)C(O)C2Cc2ccccc2)c1 (stereo not shown) [Example 15XC]
IC90 [1, 8]: < 10 µg/mL
Ki [2, 9]: 10 to 1000 nM

Reference: patent publication USRE37781E1, “Substituted cyclic carbonyls and derivatives thereof useful as retroviral protease inhibitors” (DuPont Pharmaceuticals Company, priority 1991, dated 2002)
